Assay [1] addresses T1, recombinant human plasminogen activator inhibitor-1 (PAI-1) (Homo sapiens, UniProt P05121).
T1 construct: purchased Molecular Innovations, Royal Oak, Mich
Put plainly: Primary screen for the PAI-1 inhibition (residual tPA activity, Spectrozyme-tPA chromogenic substrate). In kind it is biochemical. The following applies: 140 nM PAI-1, 70 nM tPA, pH 6.6; for inhibition at 10 µM: 10 μM test compound; for inhibition at 25 µM: 25 μM test compound. As to the method:
Test compounds are dissolved in DMSO at a final concentration of 10 mM, then diluted 100× in physiologic buffer. The inhibitory assay is initiated by the addition of the test compound (1-100 μM final concentration, maximun DMSO concentration of 0.2%) in a pH 6.6 buffer containing 140 nM recombinant human plasminogen activator inhibitor-1 (PAI-1; Molecular Innovations, Royal Oak, Mich.). Following a 1 hour incubation at room temperature, 70 nM of recombinant human tissue plasminogen activator (tPA) is added, and the combination of the test compound, PAI-1 and tPA is incubated for an additional 30 minutes. Following the second incubation, Spectrozyme-tPA (American Diagnostica, Greenwich, Conn.), a chromogenic substrate for tPA, is added and absorbance read at 405 nm at 0 and 60 minutes. Relative PAI-1 inhibition is equal to the residual tPA activity in the presence of the test compound and PAI-1. Control treatments include the complete inhibition of tPA by PAI-1 at the molar ratio employed (2:1), and the absence of any effect of the test compound on tPA alone.

In the next assay the target is human PAI-1 (Homo sapiens, UniProt P05121). As to the kind of experiment: Assay for determining IC50 of inhibition of PAI-1 (active PAI-1 bound to tPA-coated plate, antibody detection). In kind it is binding. The following applies: human PAI-1 50 ng/ml, pH 7.5. As to the method: This assay is based upon the non-SDS dissociable interaction between tPA and active PAI-1. Assay plates are initially coated with human tPA (10 μg/ml). Test compounds of the present invention are dissolved in DMSO at 10 mM, then diluted with physiologic buffer (pH 7.5) to a final concentration of 1-50 μM. Test compounds are incubated with human PAI-1 (50 ng/ml) for 15 minutes at room temperature. The tPA-coated plate is washed with a solution of 0.05% Tween 20 and 0.1% BSA, then the plate is blocked with a solution of 3% BSA. An aliquot of the substituted indole/PAI-1 solution is then added to the tPA-coated plate, incubated at room temperature for 1 hour, and washed. Active PAI-1 bound to the plate is assessed by adding an aliquot of a 1:1000 dilution of the 33B8 monoclonal antibody against human PAI-1, and incubating the plate at room temperature for 1 hour (Molecular Innovations, Royal Oak, Mich.) The plate is again washed, and a solution of goat anti-mouse IgG-alkaline phosphatase conjugate is added at a 1:50,000 dilution in goat serum. […] The plate is incubated 45 minutes at room temperature, and color development is determined at OD405 nm. The quantitation of active PAI-1 bound to tPA at varying concentrations of the test compound is used to determine the IC50. Results are analyzed using a logarithmic best-fit equation. […]
Sequence of human PAI-1 (P05121 24-402): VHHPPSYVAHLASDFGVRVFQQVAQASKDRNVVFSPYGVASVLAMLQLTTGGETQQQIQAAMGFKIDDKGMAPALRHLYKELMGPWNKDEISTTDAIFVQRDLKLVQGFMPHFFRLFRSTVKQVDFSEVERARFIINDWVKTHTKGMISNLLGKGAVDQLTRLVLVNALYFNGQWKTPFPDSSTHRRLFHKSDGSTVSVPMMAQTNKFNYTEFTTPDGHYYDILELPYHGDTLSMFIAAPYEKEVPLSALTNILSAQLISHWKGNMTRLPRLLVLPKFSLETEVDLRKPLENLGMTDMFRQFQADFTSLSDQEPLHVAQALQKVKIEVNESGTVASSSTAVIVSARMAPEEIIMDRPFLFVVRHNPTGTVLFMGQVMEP

T1 sequence (P05121 24-402): as above

As usually defined, the inhibition is the share of the control response that was lost under treatment. As for `O=C(O)c1cn(Cc2ccc(NS(=O)(=O)c3ccc(-c4ccccc4)cc3)cc2)c2ccccc12` [Compound 7, 1-{4-[(1,1′-biphenyl-4-ylsulfonyl)amino]benzyl}-1H-indole-3-carboxylic acid], in assay [1], the inhibition at 10 µM was 25% and the inhibition at 25 µM amounted to 27%. The like results for `O=C(O)c1ccc2ccn(Cc3ccc(NS(=O)(=O)c4ccc(-c5ccccc5)cc4)cc3)c2c1` [Compound 10, 1-{4-[(1,1′-biphenyl-4-ylsulfonyl)amino]benzyl}-1H-indole-6-carboxylic acid] were, in that order, 26% and 30%. The like results for `O=C(O)c1cccc2c1ccn2Cc1ccc(NS(=O)(=O)c2ccc(-c3ccccc3)cc2)cc1` [Compound 9, 1-{4-[(1,1′-biphenyl-4-ylsulfonyl)amino]benzyl}-1H-indole-4-carboxylic acid] were, in that order, 26% and 35%. For `O=C(O)c1cc2ccccc2n1Cc1ccc(NS(=O)(=O)c2ccc(-c3ccccc3)cc2)cc1` [Compound 3, 1-{4-[(1,1′-biphenyl-4-ylsulfonyl)amino]benzyl}-1H-indole-2-carboxylic acid], the inhibition at 25 µM in assay [1] turned out to be 66%. `CS(=O)(=O)Nc1ccc(Cn2c(C(=O)O)c(-c3cccs3)c3ccccc32)cc1` [Compound 14, 1-{4-[(methylsulfonyl)amino]benzyl}-3-thien-2-yl-1H-indole-2-carboxylic acid]: in assay [1], the inhibition at 10 µM stood at 45% and the inhibition at 25 µM turned out to be 53%.

`O=C(O)c1c(-c2ccccc2)c2ccccc2n1Cc1ccc(Nc2ccccc2)cc1` [Compound 16, 1-(4-anilinobenzyl)-3-phenyl-1H-indole-2-carboxylic acid]: in assay [1], the inhibition at 10 µM was determined as 26% and the inhibition at 25 µM came out at 32%.

As to `O=C(O)c1c(-c2cccs2)c2ccccc2n1Cc1ccc(NS(=O)(=O)c2ccccc2)cc1` [Compound 13, 1-{4-[(phenylsulfonyl)amino]benzyl}-3-thien-2-yl-1H-indole-2-carboxylic acid], in assay [1], the inhibition at 10 µM was found to be 50% and the inhibition at 25 µM turned out to be 79%.

On to `CC(C)(C)c1ccc(S(=O)(=O)Nc2ccc(Cn3cc(C(=O)O)c4ccccc43)cc2)cc1` [Compound 6, 1-(4-{[(4-tert-butylphenyl)sulfonyl]amino}benzyl)-1H-indole-3-carboxylic acid], for which, in assay [1], the inhibition at 10 µM was 19% and the inhibition at 25 µM was determined as 28%. The like results for `CS(=O)(=O)Nc1ccc(Cn2c(C(=O)O)c(-c3ccccc3)c3ccccc32)cc1` [Compound 12, 1-{4-[(methylsulfonyl)amino]benzyl}-3-phenyl-1H-indole-2-carboxylic acid] were, in that order, 42% and 49%. Taken in the same sequence, the figures for `CC(C)(C)c1ccc(S(=O)(=O)Nc2ccc(Cn3ccc4c(C(=O)O)cccc43)cc2)cc1` [Compound 8, 1-(4-{[(4-tert-butylphenyl)sulfonyl]amino}benzyl)-1H-indole-4-carboxylic acid] were 27% and 47%. The like results for `O=C(O)c1cc2ccccc2n1-c1ccc(-n2cccc2)cc1` [Compound 2, 1-[4-(1H-pyrrol-1-yl)phenyl]-1H-indole-2-carboxylic acid] were, in that order, 15% and 35%. Turning to `O=C(O)c1c(-c2cccs2)c2ccccc2n1Cc1ccc(Nc2ccccc2)cc1` [Compound 17, 1-(4-anilinobenzyl)-3-thien-2-yl-1H-indole-2-carboxylic acid], in assay [1], the inhibition at 10 µM came out at 25% and the inhibition at 25 µM came to 35%. Broadly, the IC50 is the midpoint of a concentration-inhibition curve. High values mean weaker potency in that assay, low ones greater potency in that assay. `Cc1ccc(C)n1-c1ccc(Cn2c(C(=O)O)c(-c3ccccc3)c3ccccc32)cc1` [Compound 15, 1-[4-(2,5-dimethyl-1H-pyrrol-1-yl)benzyl]-3-phenyl-1H-indole-2-carboxylic acid] had an IC50 against human PAI-1 of 2510 nM. In addition, in assay [1], the inhibition at 10 µM stood at 53% and the inhibition at 25 µM turned out to be 69%. On to `O=C(O)c1ccc2c(ccn2Cc2ccc(NS(=O)(=O)c3ccc(-c4ccccc4)cc3)cc2)c1` [Compound 5, 1-{4-[(1,1′-biphenyl-4-ylsulfonyl)amino]benzyl}-1H-indole-5-carboxylic acid], for which the inhibition at 25 µM in assay [1] turned out to be 22%. For `O=C(O)c1c(-c2ccccc2)c2ccccc2n1Cc1ccc(NS(=O)(=O)c2ccccc2)cc1` [Compound 11, 3-phenyl-1-{4-[(phenylsulfonyl)amino]benzyl}-1H-indole-2-carboxylic acid], in assay [1], the inhibition at 10 µM came out at 51% and the inhibition at 25 µM was 71%. Turning to `O=C(O)c1cc2ccccc2n1-c1ccc(NS(=O)(=O)c2ccc(OC(F)(F)F)cc2)cc1` [Compound 1, 1-[4-({[4-(trifluoromethoxy)phenyl]sulfonyl}amino)phenyl]-1H-indole-2-carboxylic acid], in assay [1], the inhibition at 10 µM came out at 39% and the inhibition at 25 µM is 40%.

For `CC(C)(C)c1ccc(S(=O)(=O)Nc2ccc(Cn3ccc4cc(C(=O)O)ccc43)cc2)cc1` [Compound 4, 1-(4-{[(4-tert-butylphenyl)sulfonyl]amino}benzyl)-1H-indole-5-carboxylic acid], the inhibition at 25 µM in assay [1] came to 27%.

The values are drawn from patent publication US7268159B2, “Substituted indoles” (Wyeth, priority 2003, dated 2007).
